Read-outs that look alike come from different tables or passages of the source.
Assays:
brain carnosine [1] = details: for Brain Carnosine Concentrations, Amygdala / Brain Carnosine Concentrations, Cortex / Brain Carnosine Concentrations, Hippocampus / Brain Carnosine Concentrations, Hypothalamus / Brain Carnosine Concentrations, Olfactory bulb / Brain Carnosine Concentrations, Thalamus: 30 days BA, mean ± SD
Protocol: (§1) Adult male Sprague-Dawley rats weighing 200-250 gm (n=122) were habituated to housing conditions for at least seven days. All animals were housed four per cage in a vivarium with stable temperature and a reversed 12-h light/dark cycle, with unlimited access to food and water. β-alanine was provided with glucomannan in a powder form in an 80:20 blend. Rats were provided with 100 mg of the powder per kg of body mass (a total of 30 mg of powder was dissolved in 25 ml of water). PL treated rats were provided with the vehicle (glucommanan) at the same relative dose. Animals were handled once daily. All testing was performed during the dark phase in dim red light conditions. This study was performed according to the principles and guidelines of the National Institute of Health Guide for the Care and Use of Laboratory Animals. All treatment and testing procedures were approved by the Animal Care Committee of the Ben-Gurion University of the Negev, Israel.
Rats were randomly assigned to one of four treatment groups (n=30 or 31 per group):
(§2) Following the 7-day acclimation period in which all rats received a normal powder diet, they were randomized into the four groups. Following 30-days of either normal diet or β-alanine supplemented diet the rats were exposed to either the PSS or sham protocol. All behavioral tests were conducted 7 days following the PSS or sham protocol, and the rats were then sacrificed 24 hours later and brains were removed. Diets were maintained until the end of the study.
(§3) Following the 30-day supplementation regimen, animals were exposed to the PSS protocol. The PSS protocol consisted of placing the experimental animal on well-soiled cat litter (in use by the cat for 2 days, sifted for stools) for 10 minutes in a closed environment. Control animals were exposed to fresh, unused litter for the same amount of time. The situational reminder consisted of placing animals on fresh, unused cat litter for 15 minutes.
Carnosine concentrations in brain homogenates were determined by LC-MS-MS analysis.
Brains were partially thawed on ice and six brain regions were sampled: cerebral cortex, hypothalamus, hippocampus, amygdala, olfactory bulb, and thalamus. Each sample was weighed and transferred into individual vials for further homogenization.
Brain samples were homogenized in saline (0.9% NaCl; 100 mg/l ml) supplemented with 1 mM EDTA, using Polytron Homogenizer. Homogenates were stored at −20°±5° C. prior to LC/MS/MS analysis. L-Carnosine purchased from Sigma was used to prepare standards for the calibration curve (in ppb). Samples were diluted ×5 prior to analysis. The concentration read from the standard curve was multiplied by the dilution factor and converted to ppm units.

[2] = system: animal model of post-traumatic stress disorder (PTSD)
Protocol: as §1, §2, §3

corticosterone = system: corticosterone
Protocol: as §1
Following the 7-day acclimation period in which all rats received a normal powder diet, they were randomized into the four groups. Following 30-days of either normal diet or β-alanine supplemented diet the rats were exposed to either the PSS or sham protocol. […]
Plates were read at 450 nm. […] All samples were measured in duplicate.

BDNF [3] = system: BDNF
Protocol: as §1, §2

[4] = β-alanine taken as a free amino acid; cited from earlier work
brain carnosine [5] = details: mice, β-alanine supplemented diet; cited from earlier work
BDNF [6] = details: mice, β-alanine supplemented diet; cited from earlier work
mice = details: β-alanine supplemented diet; cited from earlier work
[7] = PSS+BA: rats exposed to PSS, Day 8 post-PSS
[8] = UNEX+BA: rats not exposed to PSS
[9] = PSS+PL compared with PSS+BA (and UNEX groups), 7 days after PSS

## NCCC(=O)O [BA, β-alanine]
Brain carnosine [1]; [7]
  Brain Carnosine Concentrations, Amygdala: 3.52 ± 3.84 a, c mg · L^−1
  Brain Carnosine Concentrations, Cortex: 6.55 ± 4.90 a, c mg · L^−1
  Brain Carnosine Concentrations, Hippocampus: 5.58 ± 4.39 a, c mg · L^−1
  Brain Carnosine Concentrations, Hypothalamus: 4.54 ± 4.04 a, c mg · L^−1
  Brain Carnosine Concentrations, Olfactory bulb: 13,109 ± 9,773 mg · L^−1
  Brain Carnosine Concentrations, Thalamus: 5.97 ± 4.48 a, c mg · L^−1
Brain carnosine [1]; [8]
  Brain Carnosine Concentrations, Amygdala: 2.34 ± 3.04 mg/L
  Brain Carnosine Concentrations, Cortex: 3.78 ± 4.47 a mg · L^−1
  Brain Carnosine Concentrations, Hippocampus: 3.75 ± 3.98 a mg · L^−1
  Brain Carnosine Concentrations, Hypothalamus: 2.60 ± 2.85 mg/L
  Brain Carnosine Concentrations, Olfactory bulb: 8,309 ± 6,887 mg · L^−1
  Brain Carnosine Concentrations, Thalamus: 3.99 ± 5.10 a mg · L^−1
Brain carnosine [1]; animals supplemented with BA compared to PL
  Brain carnosine concentrations in the hippocampus and other brain sections: significantly greater
Brain carnosine [1]; supplemented versus normal diet
  influence on carnosine concentrations in the olfactory bulb: did not appear to have any influence
[2]; PSS+BA compared with PSS+PL, p=0.085
  startle amplitude: tended to have a lower startle amplitude
[2]; PSS+BA compared with UNEX+BA
  EPM scores: comparable scores to UNEX+BA
[2]; PSS+BA compared with unexposed animals (normal diet p<0.001; BA p=0.0001)
  startle amplitude: significantly greater
[2]; PSS+BA compared with unexposed animals (normal diet p=0.01; BA p=0.003)
  immobility upon cue: significantly greater immobility upon cue
[2]; PSS+BA less than PSS+PL, p=0.148
  freezing, difference: approximately 6%
[2]; PSS+BA versus PSS+PL, p=0.148
  freezing, significance of difference: not statistically different
[2]; PSS+BA, Day 8
  freezing upon cue-exposure (percentage of total time): 34.8%
[2]; [9]
  number of open arm entries in the EPM: significantly less
  time in the open arms of the EPM: significantly less time in the open arms
[2]; PSS+PL compared with PSS+BA, p<0.05
  Anxiety index: higher
[2]; animals exposed to PSS regardless of diet versus unexposed groups, p<0.001
  startle habituation score: significantly lower habituation score
[2]; exposed + β-alanine versus exposed not supplemented, p=0.085
  lower startle response: 19%
[2]; exposed + β-alanine versus exposed not supplemented, p=0.148
  lower freezing response: 15%
corticosterone; PSS+BA compared with unexposed animals, p<0.001
  corticosterone concentrations: significantly higher corticosterone concentrations
corticosterone; exposed rats normal diet versus exposed rats BA, p=0.837
  corticosterone concentrations: No significant differences
BDNF [3]; PSS+BA compared with PSS+PL, p<0.001
  BDNF expression, CA1 subregion: significantly greater than exposed rats fed a normal diet
BDNF [3]; PSS+BA compared with PSS+PL, p=0.011
  BDNF expression, DG subregion: greater
BDNF [3]; PSS+BA compared with unexposed animals
  BDNF expression, CA1 subregion: significantly lower than unexposed animals
BDNF [3]; PSS+BA compared with unexposed animals (p=0.765, p=0.818)
  BDNF expression, DG subregion: not statistically different
BDNF [3]; UNEX+BA versus UNEX+PL
  BDNF expression in unexposed rats: did not appear to increase BDNF expression
[4]
  duration of flushing/tingling of the skin: less than 60 minutes
Brain carnosine [5]
  brain carnosine concentrations in the cerebral cortex and hypothalamus: increase brain carnosine concentrations
BDNF [6]
  concentration of BDNF in the hippocampus: increase the concentration of BDNF
mice
  activity in the open arms of an elevated plus-maze test: significantly greater activity

Source: patent US20180153837A1, “METHODS OF IMPROVING PHYSIOLOGICAL RESPONSES RELATED TO POST-TRAUMATIC STRESS DISORDER THROUGH DIETARY SUPPLEMENTATION” (Natural Alternatives International, Inc., priority 2015, published 2018)
